Source: US20060013804A1, “Modulation of stem cell differentiation by modulation of caspase-3 activity” (Ottawa Health Research Institute, priority 2002, published 2006)

Key:
Format in all cases: cell-based, mouse
[1] = tested on: primary striatal stem cells (neurospheres); test: Primary striatal neurospheres with or without caspase-3 inhibitor, immunostaining for neural lineage markers; details: 1 μM inhibitor
Experimental: After sacrificing, the abdomen was sprayed with 70% ethanol. A 2 cm incision is made vertically up the abdomen. The horn was removed with sterile tweezers, and placed in PBS. The horn was cut open the horn to expose one embryo at a time and each embryo was placed in a separate 35 mm tissue culture dish containing 2 ml PBS. Each embryo was pinned to the dish and the cortex peeled off layer by layer to expose the striatum, which was then removed. The striatal tissue was placed in a 50 ml Falcon Tube containing cold Hank's Balanced Salt Solution (HBSS) on ice and the tissue allowed to settle at the bottom of the tube. The HBSS was replaced with 2 ml of Complete Neurocult Proliferation Media and the tissue triturated gently until only a few fragments of tissue remained. The supernatant was then collected and the fragments of tissue were triturated in 1 ml media. The supernatant was again removed and stored with the first supernatant that was collected.
At this point the number of cells can be counted using an aliquot of Trypan Blue (1/5 dilution). Cells were seeded at a density of 1 million cells per 25 ml of Complete Proliferation Media and grown in Complete Neurocult Proliferation Media for 4 days, at which time they were expanded if the plates appeared too confluent. If expansion was not necessary, the cells were allowed to grow for a few more days prior to harvesting. To expand the primary culture, half the cell suspension was placed in a new dish and 12.5 ml of Complete Proliferation Media was added to each of the initial plate and the expanded plate. After a few days, once most of the spheres had lifted off the dish, the sphere suspension was confluent. At this time, cells were either passaged in growth media, frozen, or plated onto a differentiation plate.
Plating and Differentiation of Striatal Stem Cells: In order to differentiate neurospheres, they must be plated onto a surface coated with Laminin and Poly-D-Lysine. The sphere suspension was collected from a 10 cm dish, placed in a 50 ml tube and centrifuged at 500 rpm for 5 min at 4° C. The supernatant was aspirated and discarded, then 2 ml of Complete Neurocult Proliferation Media was added and the sphere pellet gently triturated until the spheres were resuspended. The sphere suspension was then diluted in Complete Neurocult Proliferation Media to obtain the desired concentration (one 10 cm dish of neurospheres is appropriate for approximately 4 coated chamber slides). 2 ml aliquots of sphere suspension were plated per chamber and after a few hours at 37° C., the medium was changed to Complete Neurocult Differentiation media.
Paraformaldehyde (PFA) Fixing of Cells: Freshly made 4% PFA was used. Media was aspirated out of wells and each well was washed with 2 ml PBS for 3 min. […]

PAK1 = test: Immunoprecipitation/kinase assay of PAK1 from neurospheres; details: differentiation media, vs DMSO
Experimental: (§1) Immunoprecipitation/Kinase activity assays: Immunoprecipitation/kinase analyses were performed as previously described (Fernando, P., et al., (2002) Proc Natl Acad Sci USA 99, 11025-11030). Cellular lysates from neurospheres were generated as described above. Antibodies against apoptotic signal-regulating kinase 1 (ASK1) (Upstate, USA), p21 activated kinase 1 (PAK1) (Cell Signaling Technologies, USA), and p38 MAPK (Santa Cruz, USA) were used to immunoprecipitate respective proteins. Samples were mixed with Protein G-sepharose beads for 1 h, washed and then mixed with kinase assay buffer containing myelin basic protein (MBP) and γ-32P[ATP]. Samples were reacted at 30° C. for 30 min and separated using SDS-PAGE. In some instances, samples were transferred to PVDF membrane following electrophoresis. To quantify kinase activities, MBP acrylamide bands were excised and solubilized in scintillation fluid prior to 32P-liquid scintillation analyses. In all cases, an activated recombinant mitogen activated protein kinase activated protein-2 (MAPKAP kinase-2) (Upstate, USA) was used as an internal control for liquid scintillation analyses.
Caspase 3, when processed to its active form, is capable of targeting and activating many protein kinases that mediate cellular differentiation. […]

p38α = test: Immunoprecipitation/kinase assay of p38α from neurospheres; details: differentiation media under caspase 3 inhibition
Experimental: as §1
ASK1 activity was reduced when cells were treated with differentiation media containing z-DEVD (DEVD condition) compared to differentiation media alone (DMSO condition) (FIG. 19c,d). Both PAK1 and ASK1 have been linked to the downstream activity of p38 MAPK. […]

COC(=O)CC[C@H](NC(=O)[C@H](CC(=O)OC)NC(=O)OCc1ccccc1)C(=O)N[C@H](C(=O)N[C@@H](CC(=O)OC)C(=O)CF)C(C)C [z-DEVD.fmk]
glial fibrillary acid protein staining (astrocytes) ([1]; 48 h differentiation): showed no staining for astrocytes
myelin basic protein staining (oligodendricytes) ([1]; 48 h differentiation): did not stain positive for oligodendricytes
nestin staining after differentiation ([1]; 48 h differentiation): retain their undifferentiated lineage as demonstrated by the presence of nestin
cell cycling (nestin staining during proliferation) ([1]; proliferating striatal stem cells): does not have an effect on cell cycling
PAK1 activity (PAK1): reduced
p38α kinase activity (p38α): very low levels of p38α kinase activity
